{
  "source": "patent US9364479B2",
  "about": "“Use of a receptor-type kinase modulator for treating polycystic kidney disease” (SYMPHONY EVOLUTION, INC., priority 2010, dated 2016)",
  "key": {"H1975 xenografts": {"test_system": "H1975 xenografts", "experiment": "Immunohistochemical analysis of H1975 xenografts (TUNEL, CD31, Ki67)", "assay_type": "in vivo, mouse", "conditions": "14-day dosing", "description": "For immunohistochemical analysis of H1975, MDA-MB-231 and other xenografts, tumors were excised after euthanasia and fixed in zinc fixative (BD Biosciences) for 48 h before being processed into paraffin blocks. Serial sections at 5 μm were obtained from the area of largest possible surface for each tumor and stained using standard methods. The following antibodies were used: Ki67 (SP6; Labvision), CD31 (MECA.32; BD Biosciences), pERK^Thr202/Tyr204 (phospho-p44/42 mitogen-activated protein kinase; Cell Signaling Technology), pAKT^Ser473 (Cell Signaling Technology), and pEGFR^Tyr1068 (Cell Signaling Technology). For immunofluorescent staining, sections were then incubated with Alexa 594-conjugated goat anti-rabbit secondary antibody (Invitrogen) and mounted in Fluorescent Mounting Medium (DAKO) containing 4′,6-diamidino-2-phenylindole (Molecular Probes) as a nuclear counterstain. Fluorescent staining was visualized using a Zeiss Axiolmager and digitally captured using a Zeiss high-resolution camera coupled to AxioVision image analysis software. Two to three nonoverlapping representative fields were captured at ×200 or ×400 magnification depending on histologic readout and quantified using the integrated morphometric analysis functions in Metamorph software (Universal Imaging Corp.). Apoptotic cells were detected using terminal deoxynucleotidyl transferase-mediated dUTP nick end labeling in situ cell death detection kit according to the manufacturer's instructions (Roche Diagnostics GmbH).\nCD31-positive tumor vessels, Ki67-positive proliferating cells, and pERK staining in each tumor section were identified and quantified using the integrated morphometric analysis functions in the ACIS automatic cellular imaging system (Clarient, Inc.) and reviewed by a blinded observer. Number of CD31-positive vessels were identified across 5 to 10 randomly chosen fields of equal size at ×100 magnification in viable tumor tissue and calculated as number of vessels per square millimeter for each tumor, averaged for each treatment group, and compared with vehicle-treated controls. Percentage Ki67-positive cells were calculated as the ratio between Ki67-positive cells divided by the total number of cells identified across 5 to 10 randomly chosen fields of equal size in viable tumor tissue. The results for each tumor and treatment group were averaged and compared with vehicle-treated controls. The level of pERK staining was determined as described above and calculated as the ratio of antibody staining divided by the total number of cells identified, averaged for each treatment group, and compared with vehicle-treated controls.\nResults are presented as mean±SD or SE as indicated for each graph or table. For IC50 comparison in the A431 cell viability experiment, two sample Student's t tests were applied to determine P values for each IC50 pair assuming that the random fluctuations of replicates around the dose-response curve are distributed [log]normally with the individual replicates used as the ‘sample size’ for the t test (nine point dose response done in triplicate). For statistical analysis of immunohistochemical results from in vivo studies, two-tailed Student's t test analysis and Bonferroni correction were done to identify significant differences compared with vehicle control group (multiple use of a single vehicle control group) with a cumulative minimal requirement of P<0.05."}, "ZAP-70": {"biological_target": "T1, ZAP-70 (Homo sapiens, UniProt P43403)", "T1 construct": "purchased MBL", "T1 sequence (P43403 whole entry)": "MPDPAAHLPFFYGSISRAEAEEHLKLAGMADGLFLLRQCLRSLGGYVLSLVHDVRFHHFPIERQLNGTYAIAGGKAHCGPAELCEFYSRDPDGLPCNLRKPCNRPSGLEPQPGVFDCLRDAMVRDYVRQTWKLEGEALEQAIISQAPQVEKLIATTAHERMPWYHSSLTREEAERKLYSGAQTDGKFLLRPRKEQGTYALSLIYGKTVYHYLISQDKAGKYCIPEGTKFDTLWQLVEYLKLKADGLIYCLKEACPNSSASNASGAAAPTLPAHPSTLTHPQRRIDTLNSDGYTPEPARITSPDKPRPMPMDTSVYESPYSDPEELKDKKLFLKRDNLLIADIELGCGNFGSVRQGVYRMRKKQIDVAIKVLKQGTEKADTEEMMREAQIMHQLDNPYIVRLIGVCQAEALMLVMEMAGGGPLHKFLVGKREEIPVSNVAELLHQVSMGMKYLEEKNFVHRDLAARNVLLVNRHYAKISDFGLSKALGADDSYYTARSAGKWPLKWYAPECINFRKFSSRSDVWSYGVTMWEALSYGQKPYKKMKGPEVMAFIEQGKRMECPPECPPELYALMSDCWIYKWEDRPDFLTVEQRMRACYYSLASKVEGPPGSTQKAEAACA", "experiment": "Chemiluminescent kinase assay", "assay_type": "biochemical", "description": "(§1) A Luciferase-coupled chemiluminescence assay was used to measure EGFR and KDR (VEGFR2) activity. Kinase activity was measured as the percentage of ATP consumed following the kinase reaction using luciferase-luciferin-coupled chemiluminescence. Reactions were conducted in 384-well white, medium-binding microtiter plates (Greiner). […] The reaction mixture was incubated at room temperature for 4 h. Following the kinase reaction, a 20 μL aliquot of Kinase Glo (Promega) was added and luminescence signal was measured using a Victor2 plate reader (Perkin-Elmer). Total ATP consumption was limited to 50%.\n(§2) Further screening was performed using the biochemical assay methods of Example 2. Additional description of the components and concentrations are summarized in Table 8, Table 9, and Table 10, below."}, "c-Met": {"biological_target": "T2, c-Met (Homo sapiens, UniProt P08581)", "T2 construct": "Human, P948-; MgCl2, 0.02% Triton X-100,; S1343, N-GST-; GST (N); purchased ProQinase", "T2 sequence (P08581 956-1390 limits assumed)": "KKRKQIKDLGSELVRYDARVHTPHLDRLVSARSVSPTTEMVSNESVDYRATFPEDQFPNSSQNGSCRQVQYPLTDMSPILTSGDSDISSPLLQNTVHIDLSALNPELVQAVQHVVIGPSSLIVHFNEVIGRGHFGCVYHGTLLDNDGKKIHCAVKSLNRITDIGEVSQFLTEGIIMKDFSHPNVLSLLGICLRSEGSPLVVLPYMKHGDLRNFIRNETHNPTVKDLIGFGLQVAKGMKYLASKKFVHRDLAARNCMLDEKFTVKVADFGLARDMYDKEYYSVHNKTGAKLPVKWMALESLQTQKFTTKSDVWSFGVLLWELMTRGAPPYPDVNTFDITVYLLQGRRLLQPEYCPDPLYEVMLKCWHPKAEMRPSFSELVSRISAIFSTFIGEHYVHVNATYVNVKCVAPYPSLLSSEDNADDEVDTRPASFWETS", "experiment": "Chemiluminescent kinase assay", "assay_type": "biochemical", "description": "as §1, §2"}, "Lck": {"biological_target": "T3, Lck (Homo sapiens, UniProt P06239)", "T3 construct": "Human, Q225-; mM MgCl2, 3 mM MnCl2, 1; P510, N-GST/C-; GST (N); EF (C)", "T3 sequence (P06239 225-509 limits assumed)": "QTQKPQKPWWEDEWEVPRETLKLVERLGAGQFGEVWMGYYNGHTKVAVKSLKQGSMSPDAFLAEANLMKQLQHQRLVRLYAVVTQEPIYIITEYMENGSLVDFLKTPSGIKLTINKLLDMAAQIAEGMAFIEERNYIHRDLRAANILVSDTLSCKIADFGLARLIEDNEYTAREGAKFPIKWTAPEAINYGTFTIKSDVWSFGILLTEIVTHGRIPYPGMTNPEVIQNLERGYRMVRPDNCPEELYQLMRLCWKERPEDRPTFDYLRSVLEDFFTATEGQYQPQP", "experiment": "Chemiluminescent kinase assay", "assay_type": "biochemical", "description": "as §1, §2"}, "c-Abl": {"biological_target": "T4, c-Abl (Homo sapiens, UniProt P00519)", "T4 construct": "Human, P118-; mM MgCl2, 3 mM MnCl2, 1; S553, N-GST,; GST (N); purchased ProQinase", "T4 sequence (P00519 118-553)": "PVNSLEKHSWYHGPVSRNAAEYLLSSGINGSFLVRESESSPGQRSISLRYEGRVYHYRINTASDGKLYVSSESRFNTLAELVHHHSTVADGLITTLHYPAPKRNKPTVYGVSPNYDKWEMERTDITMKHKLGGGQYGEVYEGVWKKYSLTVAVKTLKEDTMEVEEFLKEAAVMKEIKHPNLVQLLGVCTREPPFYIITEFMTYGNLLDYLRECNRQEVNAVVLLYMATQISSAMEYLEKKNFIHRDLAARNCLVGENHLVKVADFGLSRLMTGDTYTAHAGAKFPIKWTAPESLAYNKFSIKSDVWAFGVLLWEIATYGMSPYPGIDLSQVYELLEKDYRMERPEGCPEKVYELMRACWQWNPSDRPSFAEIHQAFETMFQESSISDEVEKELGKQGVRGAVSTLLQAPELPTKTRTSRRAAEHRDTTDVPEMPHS", "experiment": "Chemiluminescent kinase assay", "assay_type": "biochemical", "description": "as §1, §2"}, "c-Kit": {"biological_target": "c-Kit (Homo sapiens, UniProt P10721)", "sequence (P10721 26-976)": "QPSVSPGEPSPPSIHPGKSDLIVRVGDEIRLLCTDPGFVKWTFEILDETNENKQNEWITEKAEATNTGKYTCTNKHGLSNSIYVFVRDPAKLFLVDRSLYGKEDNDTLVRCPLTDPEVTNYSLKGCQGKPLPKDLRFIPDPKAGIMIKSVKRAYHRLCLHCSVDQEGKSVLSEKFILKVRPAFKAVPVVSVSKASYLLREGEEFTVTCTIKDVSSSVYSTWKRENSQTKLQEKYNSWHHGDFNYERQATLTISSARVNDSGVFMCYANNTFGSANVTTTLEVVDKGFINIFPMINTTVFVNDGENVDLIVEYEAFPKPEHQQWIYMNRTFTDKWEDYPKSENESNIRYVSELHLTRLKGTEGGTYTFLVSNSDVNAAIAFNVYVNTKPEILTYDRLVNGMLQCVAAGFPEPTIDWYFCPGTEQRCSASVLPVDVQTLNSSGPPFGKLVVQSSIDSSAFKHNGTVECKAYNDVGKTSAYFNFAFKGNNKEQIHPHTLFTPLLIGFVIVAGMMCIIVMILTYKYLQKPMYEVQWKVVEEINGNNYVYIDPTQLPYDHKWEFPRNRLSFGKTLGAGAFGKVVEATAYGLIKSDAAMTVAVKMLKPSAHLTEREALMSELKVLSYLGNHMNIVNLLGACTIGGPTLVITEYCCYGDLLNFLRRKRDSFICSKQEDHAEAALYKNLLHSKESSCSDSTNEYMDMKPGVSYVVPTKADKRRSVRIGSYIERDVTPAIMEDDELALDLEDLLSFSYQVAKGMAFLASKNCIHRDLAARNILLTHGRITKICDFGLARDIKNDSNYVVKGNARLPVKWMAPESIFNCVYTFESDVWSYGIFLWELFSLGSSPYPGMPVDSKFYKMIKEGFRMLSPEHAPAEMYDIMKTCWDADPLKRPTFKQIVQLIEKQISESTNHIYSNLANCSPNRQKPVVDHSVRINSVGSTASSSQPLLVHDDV", "experiment": "c-Kit autophosphorylation ELISA, transfected HeLa cells", "assay_type": "cell-based", "parameters": "expressed in transfected cells; host or cells: HeLa", "conditions": "read-out: Cellular IC50, autophosphorylation", "description": "The c-Kit autophosphorylation ELISA utilized HeLa (ATCC) cells. Cells were seeded at 6×10^5 cells/well onto 100 mm dish. 24 hours later, HeLa cells were transfected with a mammalian expression plasmid containing a CMV promoter operably linked to the open reading frame of human c-kit with a Flag epitope tag on the C-terminus 24 hours later, c-Kit transfected HeLa cells were trypsinized and re-seeded at 6×10^3 cells/well into 96-well microtiter plates (Costar 3904), in DMEM (Cellgro) containing 10% FBS (Heat-Inactivated, Hyclone), 1% penicillin-streptomycin (Cellgro), and 1% NEAA solution (Cellgro). The cells were then incubated at 37° C., 5% CO2 for 24 hr. […] Negative control wells were left unstimulated. Following stimulation, media was removed, the cell monolayer washed with cold PBS and immediately lysed with cold lysis buffer. Lysates were incubated in 96-well streptavidin-coated plates (Pierce) coated with biotin-conjugated, goat anti-human c-Kit (1 μg/ml, R&D Systems). Plates were washed 3× with TBST and incubated either with HRP-conjugated anti-phosphotyrosine (1:10,000, Zymed Laboratories, Inc) or HRP-conjugated anti-Flag(M2) (1:2,000, Sigma). Plates were washed again as described above followed by the addition of a luminol-based substrate solution and read with a Victor spectrophotometer (Wallac)."}, "PKA": {"biological_target": "T5, PKA (Bos taurus, UniProt P00517)", "T5 construct": "Bovine (Heart),; purchased Upstate Biotechnology; host or cells: bovine heart", "experiment": "Chemiluminescent kinase assay", "assay_type": "biochemical, bovine", "description": "as §2"}, "[1]": {"conditions": "human, in vivo", "description": "Food effect on bioavailability was analyzed."}},
  "note": "Marks after values point to notes of the source that are not given here.",
  "data": [
    {"smiles": "COc1cc2c(Nc3ccc(Cl)c(Cl)c3F)ncnc2cc1OC[C@@H]1C[C@@H]2CN(C)C[C@@H]2C1", "note": "[XL-647, N-(3,4-dichloro-2-fluorophenyl)-7-({[(3aR,5r,6aS)-2-methyloctahydrocyclopenta[c]pyrrol-5-yl]methyl}oxy)-6-(methyloxy)quinazolin-4-amine]", "values": [
      {"measurement": "CD31 Analysis % Reduction", "setting": "H1975 xenografts; 10 mg/kg", "value": "30.0^b %"},
      {"measurement": "CD31 Analysis MVC", "setting": "H1975 xenografts; 10 mg/kg", "value": 44},
      {"measurement": "Ki67 Expression % Cells", "setting": "H1975 xenografts; 10 mg/kg", "value": 27, "unit": "%"},
      {"measurement": "Ki67 Expression % Reduction", "setting": "H1975 xenografts; 10 mg/kg", "value": "23.2^b %"},
      {"measurement": "TUNEL % Cells", "setting": "H1975 xenografts; 10 mg/kg", "value": 6, "unit": "%"},
      {"measurement": "CD31 Analysis % Reduction", "setting": "H1975 xenografts; 30 mg/kg", "value": "46.1^a %"},
      {"measurement": "CD31 Analysis MVC", "setting": "H1975 xenografts; 30 mg/kg", "value": 34},
      {"measurement": "Ki67 Expression % Cells", "setting": "H1975 xenografts; 30 mg/kg", "value": 20, "unit": "%"},
      {"measurement": "Ki67 Expression % Reduction", "setting": "H1975 xenografts; 30 mg/kg", "value": "41.9^a %"},
      {"measurement": "TUNEL % Cells", "setting": "H1975 xenografts; 30 mg/kg", "value": 11, "unit": "%"},
      {"measurement": "CD31 Analysis % Reduction", "setting": "H1975 xenografts; 100 mg/kg", "value": "69.6^a %"},
      {"measurement": "CD31 Analysis MVC", "setting": "H1975 xenografts; 100 mg/kg", "value": 19},
      {"measurement": "Ki67 Expression % Cells", "setting": "H1975 xenografts; 100 mg/kg", "value": 8.9, "unit": "%"},
      {"measurement": "Ki67 Expression % Reduction", "setting": "H1975 xenografts; 100 mg/kg", "value": "74.6^a %"},
      {"measurement": "TUNEL % Cells", "setting": "H1975 xenografts; 100 mg/kg", "value": 15, "unit": "%"},
      {"measurement": "IC50", "setting": "ZAP-70", "value": "7810 ± 655", "unit": "nM"},
      {"measurement": "IC50", "setting": "c-Met", "value": "332 ± 50.7", "unit": "nM"},
      {"measurement": "IC50", "setting": "Lck", "value": "31 ± 0.3", "unit": "nM"},
      {"measurement": "IC50", "setting": "c-Abl", "value": "337 ± 3.6", "unit": "nM"},
      {"measurement": "IC50", "setting": "c-Kit", "value": 90, "unit": "nM"},
      {"measurement": "IC50", "setting": "PKA", "value": "> 10000", "unit": "nM"},
      {"measurement": "AUC increase in the presence of food", "setting": "[1]", "value": "approximately 18%"},
      {"measurement": "Cmax increase in the presence of food", "setting": "[1]", "value": "about 5%"}
    ]}
  ]
}
